Assay results reported in the CheMixHub ionic liquid set.

Experiment: xn = mol fraction of the nth substance listed

CCCC[n+]1ccc(C)cc1.[Br-] + CO/N=C(\C(=O)N[C@@H]1C(=O)N2C(C(=O)[O-])=C(CSc3nc(=O)c(=O)[n-]n3C)CS[C@H]12)c1csc(N)n1.[Na+].[Na+] + O
viscosity [mPa·s], 100 kPa
Conditions	288.15 K	293.15 K	298.15 K	303.15 K	308.15 K
x2 = 0, x1 = 0.0007903	1.165	1.024	0.907	0.813	0.734
x2 = 0, x1 = 0.001191	1.176	1.037	0.919	0.824	0.745
x2 = 0, x1 = 0.001595	1.195	1.044	0.926	0.833	0.75
x2 = 0.0008523, x1 = 0.0007896	1.293	1.134	0.998	0.892	0.805
x2 = 0.0008581, x1 = 0.00119	1.321	1.176	1.024	0.918	0.827
x2 = 0.001389, x1 = 0.0007891	1.39	1.219	1.077	0.965	0.863
x2 = 0.001401, x1 = 0.001593	1.423	1.241	1.103	0.989	0.884
x2 = 0.001946, x1 = 0.0007887	1.504	1.31	1.157	1.035	0.931
x2 = 0.001971, x1 = 0.001189	1.511	1.342	1.183	1.055	0.948
x2 = 0.001975, x1 = 0.001592	1.545	1.355	1.192	1.065	0.954
x2 = 0.002543, x1 = 0.0007882	1.632	1.427	1.256	1.12	1.007
x2 = 0.002544, x1 = 0.001591	1.673	1.464	1.295	1.152	1.031
x2 = 0.003109, x1 = 0.001187	1.806	1.567	1.379	1.224	1.096
x2 = 0.003138, x1 = 0.0007878	1.767	1.543	1.364	1.213	1.086
x2 = 0.003151, x1 = 0.00159	1.823	1.589	1.399	1.244	1.113
x2 = 0.003944, x1 = 0.001186	2.024	1.764	1.544	1.369	1.222
x2 = 0.003953, x1 = 0.0007871	1.993	1.729	1.519	1.351	1.208
x2 = 0.003986, x1 = 0.001589	2.106	1.787	1.577	1.395	1.245
x2 = 0.004811, x1 = 0.001588	2.346	2.022	1.772	1.562	1.389
x2 = 0.004834, x1 = 0.0007864	2.266	1.959	1.718	1.524	1.35
x2 = 0.004855, x1 = 0.001185	2.32	2.01	1.757	1.552	1.38
x2 = 0.005536, x1 = 0.0007859	2.52	2.173	1.904	1.68	1.492
x2 = 0.005537, x1 = 0.001184	2.56	2.232	1.937	1.706	1.514
x2 = 0.005566, x1 = 0.001586	2.63	2.267	1.983	1.738	1.544

CCCCn1cc[n+](C)c1C.O=S(=O)([N-]S(=O)(=O)C(F)(F)F)C(F)(F)F + COC(=O)OC
viscosity [mPa·s], 101.3 kPa
Conditions	288.15 K	293.15 K	298.15 K	303.15 K	308.15 K	313.15 K
x1 = 0.003134	0.698	0.653	0.611	0.575	0.541	0.511
x1 = 0.003617	0.704	0.658	0.615	0.579	0.544	0.513
x1 = 0.004671	0.717	0.669	0.626	0.588	0.553	0.522
x1 = 0.005144	0.722	0.674	0.63	0.592	0.557	0.525
x1 = 0.007528	0.753	0.701	0.655	0.614	0.578	0.544
x1 = 0.008467	0.763	0.711	0.664	0.622	0.585	0.551
x1 = 0.01016	0.786	0.731	0.682	0.639	0.6	0.564
x1 = 0.01046	0.789	0.734	0.685	0.641	0.602	0.566
x1 = 0.01168	0.805	0.748	0.697	0.653	0.612	0.577
x1 = 0.01411	0.833	0.773	0.721	0.674	0.632	0.597
x1 = 0.01541	0.85	0.788	0.734	0.685	0.643	0.604
x1 = 0.01579	0.854	0.791	0.738	0.688	0.645	0.606
x1 = 0.01626	0.86	0.798	0.743	0.693	0.651	0.61
x1 = 0.01704	0.87	0.807	0.751	0.7	0.657	0.616
x1 = 0.01948	0.898	0.832	0.773	0.722	0.675	0.634
x1 = 0.01969	0.901	0.834	0.775	0.723	0.677	0.635
x1 = 0.02378	0.947	0.876	0.813	0.758	0.709	0.665
x1 = 0.02412	0.949	0.878	0.816	0.76	0.711	0.667
x1 = 0.02675	0.977	0.903	0.838	0.781	0.731	0.684
x1 = 0.02717	0.98	0.907	0.842	0.784	0.734	0.688
x1 = 0.03309	1.044	0.964	0.894	0.833	0.778	0.729
x1 = 0.03594	1.073	0.99	0.918	0.855	0.798	0.748
x1 = 0.03715	1.086	1.002	0.929	0.864	0.807	0.756
x1 = 0.0405	1.117	1.031	0.957	0.89	0.83	0.777
x1 = 0.04889	1.211	1.117	1.034	0.96	0.895	0.837

O=S(=O)([N-]S(=O)(=O)C(F)(F)F)C(F)(F)F.[Li+] + COC(=O)OC
298.1 K, 100 kPa, x1 = 0.333
Conditions	electrical conductivity [S/m]	viscosity [mPa·s]
–	0.12	53.7

O=S(=O)([N-]S(=O)(=O)C(F)(F)F)C(F)(F)F.[Li+] + COC(=O)OC + CCC1COC(=O)O1
Conditions	viscosity [mPa·s]
298.15 K, 100 kPa, x1 = 0.333, x2 = 0.667	53.7

O=S(=O)([N-]S(=O)(=O)C(F)(F)F)C(F)(F)F.[Li+] + COC(=O)OC + CCC(=O)OC
Conditions	viscosity [mPa·s]
298.15 K, 100 kPa, x1 = 0.333, x2 = 0.667	53.7

CCCCCCCCCCCCCC[P+](CCCCCC)(CCCCCC)CCCCCC.O=[N+]([O-])c1c[n-]cn1 + COCCOCCOCCOCCOC
viscosity [mPa·s], 100 kPa
Conditions	278.15 K	283.15 K	303.15 K
x2 = 0.189	1503	1036	–
x2 = 0.404	–	–	107

O=S(=O)([N-]S(=O)(=O)C(F)(F)F)C(F)(F)F.[Li+] + COCCOCCOCCOCCOC
Conditions	electrical conductivity [S/m]
293 K, 100 kPa, frequency 0.05 MHz, x1 = 0.143	0.235

CC(=O)[O-].CC[NH+](CC)CC + CS(C)=O
viscosity [mPa·s], 101 kPa
Conditions	298.15 K	303.15 K	308.15 K
x2 = 0	24.12	19.64	16.13
x2 = 0.0534	22.91	18.67	15.35
x2 = 0.0936	22.01	17.94	14.76
x2 = 0.1496	20.75	16.93	13.94
x2 = 0.1837	19.99	16.31	13.44
x2 = 0.2154	19.28	15.74	12.98
x2 = 0.2836	17.76	14.51	11.98
x2 = 0.3204	16.94	13.85	11.44
x2 = 0.3837	15.53	12.71	10.51
x2 = 0.4536	13.97	11.45	9.49
x2 = 0.5169	12.56	10.31	8.56
x2 = 0.5647	11.49	9.45	7.86
x2 = 0.6447	9.71	8.01	6.69
x2 = 0.7301	7.81	6.48	5.45
x2 = 0.7884	6.52	5.44	4.61
x2 = 0.839	5.41	4.55	3.89
x2 = 0.8848	4.42	3.76	3.24
x2 = 0.9121	3.84	3.29	2.86
x2 = 0.9393	3.26	2.82	2.48
x2 = 0.9649	2.72	2.39	2.13
x2 = 0.9764	2.48	2.2	1.98

CC(N)C(=O)[O-].COCCCCn1cc[n+](C)c1 + CS(C)=O
100 kPa
Conditions	viscosity [mPa·s]
288.15 K, x1 = 0.1996	11.74
288.15 K, x1 = 0.3012	22.04
288.15 K, x1 = 0.5996	96.5
288.15 K, x1 = 0.8997	304
293.15 K, x1 = 0.1996	11.35
293.15 K, x1 = 0.3012	19.11
293.15 K, x1 = 1	266
298.15 K, x1 = 0.1996	8.85
303.15 K, x1 = 0.1996	7.37
303.15 K, x1 = 0.5996	41.72
308.15 K, x1 = 0.3985	16.23
308.15 K, x1 = 0.5996	33.51
308.15 K, x1 = 0.6966	44.96
308.15 K, x1 = 0.7973	60.65
313.15 K, x1 = 0.6966	36.01
318.15 K, x1 = 0.1009	3.18
318.15 K, x1 = 0.4922	15.18
318.15 K, x1 = 0.5996	21.68
318.15 K, x1 = 0.7973	37.1

O=C(O)CC(O)(CC(=O)O)C(=O)O + C[N+](C)(C)Cc1ccccc1.[Cl-]
101 kPa, x2 = 0.5
Conditions	electrical conductivity [S/m]	viscosity [mPa·s]
293.15 K	3.3e-05	–
298.09 K	3.9e-05	–
303.11 K	0.000162	–
308.2 K	0.000519	–
312.91 K	–	237000
313.21 K	0.00111	–
318.06 K	0.001906	–
327.86 K	–	52100
328.14 K	0.005576	–
333.12 K	0.009475	–
